Reference: patent US20240407363A1 (priority 2021, published 2024)

What was measured:
[1] = test system: X. perforans (a copper-resistant strain QL); test: Greenhouse experiment, bacterial spot of tomato (cv. FL 47), compounds sprayed approx. 2 h before inoculation; format: in vivo; conditions: for BS1 average disease severity of bacterial spot on two mostly infected leaves / WHOLE1 disease severity over the whole plant: 10 d after inoculation; for BS2 average disease severity of bacterial spot on two mostly infected leaves / WHOLE2 disease severity over the whole plant: 12 d after inoculation; for BS3 average disease severity of bacterial spot on two mostly infected leaves / WHOLE3 disease severity over the whole plant: 14 d after inoculation; for AUDPC_BS: two mostly infected leaves, 10, 12, 14 days after inoculation; for AUDPC_WHOLE: whole plant, 10, 12, 14 days after inoculation
Procedure: Tomato (cv. FL 47) was seeded in the greenhouse (the highest temperature was set at 82° F.) and the seedlings with two fully expanded leaves (about 3 weeks after seeding) were transplanted to soilless mix in 6-inch pots. One week after transplanting, treatments with the compounds at the test concentrations were sprayed onto plants until runoff approx. 2 h before inoculation with X. perforans. Untreated plants were used as the control (CK). There were five plants in each treatment and one plant served as one replicate. All plants were inoculated by spraying a bacterial suspension of X. perforans (a copper-resistant strain QL) at 1×10^8 CFU/ml until runoff. Inoculated plants were incubated in a moist chamber overnight (approx. 18 h) to ensure and promote infection by X. perforans. Then the inoculated plants were taken out and placed randomly on a bench inside the greenhouse for disease development. Plants were sprayed with mist periodically to stimulate disease development. When lesions on the leaves were apparent, the percentage of leaf area covered by the lesions, either for the two mostly infected leaves or the whole plant, was rated and recorded for each treatment. Disease rating was conducted at least two times. The area under the disease progress curve (AUDPC) was calculated for each treatment to reflect the disease development over a period if disease rating was carried out three times or more.

[2] = test system: Xanthomonas perforans; test: Field trials on piperidine and pyrrolidine, bacterial spot of tomato, foliar spray; format: in vivo; conditions: for AUDPC / BS last rating of bacterial spot severity / YIELD: foliar spray at the concentration given with each treatment; for increase of marketable tomato fruit yield compared to the untreated control (CK) / bacterial spot disease severity and AUDPC compared to the untreated control (CK): pyrrolidine at 128 mg/ml; for bacterial spot disease severity and AUDPC compared to the untreated control (CK): foliar sprays, both independent trials, 2021-2022
Text: Tomato seedlings were transplanted in fall for the first trial (trial 1) and spring for the second trial (trial 2). Treatments were started about two weeks after transplanting following weekly applications for a total of eight weeks. Tomato plants were inoculated with the pathogen Xanthomonas perforans (1-5×10^6 cfu/ml) the following day in the afternoon after the third treatment. Disease severity was rated weekly when bacterial spot symptoms were observed, and area under the disease progress curve (AUDPC) was calculated. Tomato fruit were harvested two to three times for each trial and graded according to the USDA standard. Total fruit yield in each treatment and the untreated control (CK) was subjected to statistical analysis using SAS (version 9.2, SAS Institute Inc., Cary, NC, USA). Disease severity of last rating and AUDPC from each trial were analyzed and presented.
All treatments were applied through a foliar spray at specified concentrations. Piperidine and pyrrolidine were evaluated in two independent trials. Tomato cultivar was ‘Red bounty’ in trial 1, and ‘Varsity’ in trial 2.

[3] = test system: X. perforans GEV-485; test: In vitro MIC and MBC determination in nutrient broth / on NA plates; format: cell-based; conditions: three trials
Procedure: X. perforans strain GEV-485, a copper-resistant strain, was used in this study to evaluate the antibacterial activity of Hx. Working cultures of GEV-485 were retrieved from −80° C. storage vials containing bacterial suspensions in 30% glycerol (v/v). Bacterial cells were taken from the storage, streaked on nutrient agar (NA; Difco™ Sparks, MD) plates and incubated for 48 h at 28° C. and single colonies were picked and streaked on NA plates to ensure bacterial purity for further cultures. NA amended with copper (II) sulfate pentahydrate (CuSO4·5H2O) (Fisher Scientific-Hampton, NH) at 20 ppm, was used as copper tolerance selective agent. To prepare the bacterial inoculum, a single bacterial colony was streaked on NA and incubated for 24 h at 28° C. From those plates, loops of bacterial cells were collected and resuspended in SDW amended with 0.01 M MgSO4. The bacterial concentration was adjusted to ˜5.0×10^8 colony-forming units (CFU)/mL based on an optical density (OD) of 0.3 at 600 nm. The in vitro studies were conducted to determine the minimum inhibitory concentration (MIC), minimum bactericidal concentration (MBC), and the antibacterial activity at different time points.
To determine MIC of Hx against X. perforans GEV-485, individual 96-well plates containing 100 μL of nutrient broth (NB) with varied copper and Hx concentrations were inoculated with 100 μL of the GEV-485 suspension at the concentration of 1.0×10^8 CFU/mL. The final chemical concentrations on the wells were 16, 32, 64, 128, 256, 512, 1024, 2048, 4096 and 8192 mg/L. Three wells with 100 µL of NB and 100 μL of the bacterial suspension were the controls. Solutions in all wells were thoroughly mixed by pipetting. The plate was, then, covered with a lid and incubated under stationary conditions at 28° C. for 24 h. The value of MIC for Hx and copper was determined as the minimum concentration (mg/L), at which the bacterial growth was inhibited (the solution was clear), among all tested concentrations of each chemical. After MIC was determined, an aliquot of 20 μL of the solution from the wells that gave a clear solution was plated on NA. […] The MBC was determined as the minimum concentration, at which >99.9% of the initial bacterial populations were killed and no visible growth of the bacterium was observed on the NA plates among all tested concentrations of antimicrobial agents. The experiment was repeated two more times, with three replications for each treatment.

[4] = first value named of two independent trials, piperidine at 64 mg/ml
[5] = second value named of two independent trials, piperidine at 64 mg/ml

pyrrolidine
BS1 average disease severity of bacterial spot on two mostly infected leaves ([1]; 64 mg/L = 64 ppm): 14.0 bc
WHOLE1 disease severity over the whole plant ([1]; 64 mg/L = 64 ppm): 5.1 bc
BS1 average disease severity of bacterial spot on two mostly infected leaves ([1]; 128 mg/L = 128 ppm): 7.5 c
WHOLE1 disease severity over the whole plant ([1]; 128 mg/L = 128 ppm): 1.5 c
BS2 average disease severity of bacterial spot on two mostly infected leaves ([1]; 64 mg/L = 64 ppm): 15.2 bc
WHOLE2 disease severity over the whole plant ([1]; 64 mg/L = 64 ppm): 7.5 cde
BS2 average disease severity of bacterial spot on two mostly infected leaves ([1]; 128 mg/L = 128 ppm): 9.0 c
WHOLE2 disease severity over the whole plant ([1]; 128 mg/L = 128 ppm): 1.8 de
BS3 average disease severity of bacterial spot on two mostly infected leaves ([1]; 64 mg/L = 64 ppm): 17.5 c
WHOLE3 disease severity over the whole plant ([1]; 64 mg/L = 64 ppm): 5.3 c
BS3 average disease severity of bacterial spot on two mostly infected leaves ([1]; 128 mg/L = 128 ppm): 11.0 c
WHOLE3 disease severity over the whole plant ([1]; 128 mg/L = 128 ppm): 3.8 c
bacterial spot disease compared to the untreated control (CK) ([1]; at 64 and 128 mg/L each): significantly (P<0.05) reduced bacterial spot disease
AUDPC_BS ([1]; 64 mg/L = 64 ppm): 219.6 c
AUDPC_BS ([1]; 128 mg/L = 128 ppm): 127.8 cd
AUDPC_WHOLE ([1]; 64 mg/L = 64 ppm): 88.7 days
AUDPC_WHOLE ([1]; 128 mg/L = 128 ppm): 31.2 days
AUDPC ([2]; Trial 1, cv. Red bounty): 466.1 c
BS last rating of bacterial spot severity ([2]; Trial 1, cv. Red bounty): 31.7 b %
YIELD ([2]; Trial 1, cv. Red bounty): 3.95 a kg/plant
AUDPC ([2]; Trial 2, cv. Varsity): 401.8 b
BS last rating of bacterial spot severity ([2]; Trial 2, cv. Varsity): 23.1 b %
YIELD ([2]; Trial 2, cv. Varsity): 3.99 a kg/plant
increase of marketable tomato fruit yield compared to the untreated control (CK) [2, 4]: 15.9%
bacterial spot disease severity and AUDPC compared to the untreated control (CK) ([2]; piperidine at 64 mg/ml): significantly (P<0.05) reduced bacterial spot disease severity at the last rating and the overall disease progress
increase of marketable tomato fruit yield compared to the untreated control (CK) [2, 5]: 5.6%

C1CCNCC1 [Piperidine, piperidine]
BS1 average disease severity of bacterial spot on two mostly infected leaves ([1]; 32 mg/L = 32 ppm): 24.5 a
WHOLE1 disease severity over the whole plant ([1]; 32 mg/L = 32 ppm): 14.2 a
BS1 average disease severity of bacterial spot on two mostly infected leaves ([1]; 64 mg/L = 64 ppm): 30.0 a
WHOLE1 disease severity over the whole plant ([1]; 64 mg/L = 64 ppm): 10.0 ab
BS2 average disease severity of bacterial spot on two mostly infected leaves ([1]; 32 mg/L = 32 ppm): 33.0 a
WHOLE2 disease severity over the whole plant ([1]; 32 mg/L = 32 ppm): 26.0 ab
BS2 average disease severity of bacterial spot on two mostly infected leaves ([1]; 64 mg/L = 64 ppm): 36.0 a
WHOLE2 disease severity over the whole plant ([1]; 64 mg/L = 64 ppm): 28.0 a
BS3 average disease severity of bacterial spot on two mostly infected leaves ([1]; 32 mg/L = 32 ppm): 35.0 b
WHOLE3 disease severity over the whole plant ([1]; 32 mg/L = 32 ppm): 26.0 ab
BS3 average disease severity of bacterial spot on two mostly infected leaves ([1]; 64 mg/L = 64 ppm): 54.0 a
WHOLE3 disease severity over the whole plant ([1]; 64 mg/L = 64 ppm): 32.0 a
bacterial spot disease compared to CK ([1]; at 32 and 64 mg/L alone): failed to reduce the disease
AUDPC_BS ([1]; 32 mg/L = 32 ppm): 439.3 b
AUDPC_BS ([1]; 64 mg/L = 64 ppm): 546.0 a
AUDPC_WHOLE ([1]; 32 mg/L = 32 ppm): 322.7 ab
AUDPC_WHOLE ([1]; 64 mg/L = 64 ppm): 343.0 a
AUDPC ([2]; Trial 1, cv. Red bounty): 495.9 bc
BS last rating of bacterial spot severity ([2]; Trial 1, cv. Red bounty): 34.6 b %
YIELD ([2]; Trial 1, cv. Red bounty): 3.88 a kg/plant
AUDPC ([2]; Trial 2, cv. Varsity): 394.9 b
BS last rating of bacterial spot severity ([2]; Trial 2, cv. Varsity): 23.8 b %
YIELD ([2]; Trial 2, cv. Varsity): 4.38 a kg/plant
increase of marketable tomato fruit yield compared to the untreated control (CK) [2, 4]: 15.5%
effect on disease reduction compared to ManKocide at the label rate of 2.1 mg/ml ([2]; piperidine at 64 mg/ml, foliar spray): even better than ManKocide®
bacterial spot disease severity and AUDPC compared to the untreated control (CK) ([2]; piperidine at 64 mg/ml): significantly (P<0.05) reduced bacterial spot disease severity at the last rating and the overall disease progress
increase of marketable tomato fruit yield compared to the untreated control (CK) [2, 5]: 17.6%

O=S(=O)([O-])[O-].[Cu+2] [Copper (CuSO4), CuSO4, reference compound]
MIC ([3]; 28° C. for 24 h, copper-resistant strain): 1024 µg/mL
MBC ([3]; >99.9% of initial bacterial populations killed, no visible growth on NA): 2048 µg/mL
